According to patent publication US8802597B2, “Herbicidal pyrimidines” (E I du Pont de Nemours and Company, priority 2003, dated 2014):
Read-outs that look alike come from different tables or passages of the source.

Experiments:
Assay type in all cases: in vivo
[1] = system: Surinam grass (Brachiaria decumbens); assay: Test B pre/postemergence; settings: Urochloa decumbens; for pest or weed control at 62 g/ha: 62 g ai/ha; for pest or weed control at 250 g/ha: 250 g ai/ha
Summary of the method: (§1)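 Compounds in non-phytotoxic solvent with surfactant applied preemergence to planted seeds or postemergence to plants 2 to 18 cm tall (1- to 4-leaf stage). Greenhouse 13 to 15 days, then visual rating against controls on a 0 to 100 scale (100 = complete control).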

[2] = system: barnyardgrass (Echinochloa crus-galli); assay: Test B pre/postemergence; settings: Echinochloa crus-galli; for pest or weed control at 62 g/ha: 62 g ai/ha; for pest or weed control at 250 g/ha: 250 g ai/ha
Summary of the method: as §1

[3] = system: cocklebur (Xanthium strumarium); assay: Test B pre/postemergence; settings: Xanthium strumarium; for pest or weed control at 62 g/ha: 62 g ai/ha; for pest or weed control at 250 g/ha: 250 g ai/ha
Summary of the method: as §1

corn (Zea mays) = assay: Test B pre/postemergence; settings: Zea mays; for Corn plant response rating (crop injury, 0 = no effect, 100 = complete kill) at 250 g/ha: 250 g ai/ha
Summary of the method: as §1

[4] = system: crabgrass (Digitaria sanguinalis); assay: Test B pre/postemergence; settings: Digitaria sanguinalis; for pest or weed control at 62 g/ha: 62 g ai/ha; for pest or weed control at 250 g/ha: 250 g ai/ha
Summary of the method: as §1

[5] = system: giant foxtail (Setaria faberii); assay: Test B pre/postemergence; settings: Setaria faberi; for pest or weed control at 62 g/ha: 62 g ai/ha; for pest or weed control at 250 g/ha: 250 g ai/ha
Summary of the method: as §1

[6] = system: lambsquarters (Chenopodium album); assay: Test B pre/postemergence; settings: Chenopodium album; for pest or weed control at 62 g/ha: 62 g ai/ha; for pest or weed control at 250 g/ha: 250 g ai/ha
Summary of the method: as §1

[7] = system: morningglory (Ipomoea coccinea); assay: Test B pre/postemergence; settings: Ipomoea; for pest or weed control at 62 g/ha: 62 g ai/ha; for pest or weed control at 250 g/ha: 250 g ai/ha
Summary of the method: as §1

[8] = system: pigweed (Amaranthus retroflexus); assay: Test B pre/postemergence; settings: Amaranthus retroflexus; for pest or weed control at 62 g/ha: 62 g ai/ha; for pest or weed control at 250 g/ha: 250 g ai/ha
Summary of the method: as §1

[9] = system: velvetleaf (Abutilon theophrasti); assay: Test B pre/postemergence; settings: Abutilon theophrasti; for pest or weed control at 62 g/ha: 62 g ai/ha; for pest or weed control at 250 g/ha: 250 g ai/ha
Summary of the method: as §1

[10] = system: wheat (Triticum aestivum); assay: Test B pre/postemergence; settings: Triticum aestivum; for plant injury at 62 g/ha: 62 g ai/ha; for plant injury at 250 g/ha: 250 g ai/ha
Summary of the method: as §1

[11] = system: blackgrass (Alopecurus myosuroides); assay: Test B postemergence; settings: Alopecurus myosuroides, post-emergence
Summary of the method: as §1

wild oat (Avena fatua) = assay: Test B postemergence; settings: Avena fatua, post-emergence
Summary of the method: as §1

[12] = system: barnyardgrass (Echinochloa crus-galli); assay: Test B flooded paddy test; settings: Echinochloa crus-galli, Flood, 1000 g ai/ha; scale 0 (no effect) to 100 (complete control); read-out: Plant response rating, Barnyardgrass
Summary of the method: (§2)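 Rice, umbrella sedge, duck salad and barnyardgrass grown to 2-leaf stage under flooded paddy conditions and treated with formulated test chemicals. Kept in greenhouse 13–15 days, then visually rated against untreated controls on a 0–100 scale (0 no effect, 100 complete control).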

[13] = system: duck salad (Heteranthera limosa); assay: Test B flooded paddy test; settings: Heteranthera limosa, Flood, 1000 g ai/ha; scale 0 to 100; read-out: Plant response rating, Ducksalad
Summary of the method: as §2

rice (Oryza sativa) = assay: Test B flooded paddy test; settings: Oryza sativa, Flood, 1000 g ai/ha; scale 0 to 100; read-out: Plant response rating, Rice
Summary of the method: as §2

[14] = system: umbrella sedge (Cyperus difformis); assay: Test B flooded paddy test; settings: Cyperus difformis, Flood, 1000 g ai/ha; scale 0 to 100; read-out: Plant response rating, Sedge, Umbrella
Summary of the method: as §2

[15] = pre-emergence, Preemergence, scale 0 to 100 (0 no effect, 100 complete control), read-out: Plant response rating, Barnyardgrass
[16] = pre-emergence, Preemergence, scale 0 to 100 (0 no effect, 100 complete control), read-out: Plant response rating, Wheat

`CCOC(=O)c1nc(C2CC2)nc(N)c1Cl` [Compound 4, ethyl 6-amino-5-chloro-2-cyclopropyl-4-pyrimidinecarboxylate] showed a pest or weed control at 62 g/ha ([1]; post-emergence, Postemergence, scale 0 to 100 (0 no effect, 100 complete control), read-out: Surinam Grass plant response rating) of 90%, a pest or weed control at 250 g/ha ([1]; post-emergence, Postemergence, scale 0 to 100, read-out: Plant response rating, Surinam Grass) of 90% and a pest or weed control at 250 g/ha ([1]; pre-emergence, Preemergence, scale 0 to 100 (0 no effect, 100 complete control), read-out: Plant response rating, Surinam Grass) of 90%. For the same molecule, the pest or weed control at 62 g/ha ([1]; pre-emergence, Preemergence, scale 0 to 100, 0 no effect, 100 complete control, read-out: Plant response rating, Surinam Grass) was 40%, the pest or weed control at 62 g/ha ([2]; post-emergence, Postemergence, scale 0 to 100 (0 no effect, 100 complete control), read-out: Barnyardgrass plant response rating) was 70% and the pest or weed control at 250 g/ha ([2]; post-emergence, Postemergence, scale 0 to 100, read-out: Plant response rating, Barnyardgrass) was 90%. It also gave a pest or weed control at 62 g/ha [2, 15] of 30%, a pest or weed control at 250 g/ha [2, 15] of 90% and a pest or weed control at 62 g/ha ([3]; post-emergence, Postemergence, scale 0 to 100 (0 no effect, 100 complete control), read-out: Cocklebur plant response rating) of 90%. For the same molecule, the pest or weed control at 250 g/ha ([3]; post-emergence, Postemergence, scale 0 to 100, read-out: Plant response rating, Cocklebur) was 100%, the pest or weed control at 62 g/ha ([3]; pre-emergence, Preemergence, scale 0 to 100, 0 no effect, 100 complete control, read-out: Plant response rating, Cocklebur) was 80% and the pest or weed control at 250 g/ha ([3]; pre-emergence, Preemergence, scale 0 to 100 (0 no effect, 100 complete control), read-out: Plant response rating, Cocklebur) was 100%. For the same molecule, the plant injury at 62 g/ha (corn (Zea mays); post-emergence, Postemergence, 62 g ai/ha, scale 0 to 100 (0 no effect, 100 complete control), read-out: Corn plant response rating) was 50%, the Corn plant response rating (crop injury, 0 = no effect, 100 = complete kill) at 250 g/ha (corn (Zea mays); post-emergence, Postemergence, scale 0 to 100) was 90% and the Corn plant response rating (crop injury, 0 = no effect, 100 = complete kill) at 62 g/ha (corn (Zea mays); pre-emergence, Preemergence, 62 g ai/ha, scale 0 to 100, 0 no effect, 100 complete control) was 0%. It also gave a Corn plant response rating (crop injury, 0 = no effect, 100 = complete kill) at 250 g/ha (corn (Zea mays); pre-emergence, Preemergence, scale 0 to 100 (0 no effect, 100 complete control)) of 80%, a pest or weed control at 62 g/ha ([4]; post-emergence, Postemergence, scale 0 to 100 (0 no effect, 100 complete control), read-out: Crabgrass plant response rating) of 80% and a pest or weed control at 250 g/ha ([4]; post-emergence, Postemergence, scale 0 to 100, read-out: Plant response rating, Crabgrass) of 90%. The pest or weed control at 62 g/ha ([4]; pre-emergence, Preemergence, scale 0 to 100, 0 no effect, 100 complete control, read-out: Plant response rating, Crabgrass) was 70%, the pest or weed control at 250 g/ha ([4]; pre-emergence, Preemergence, scale 0 to 100 (0 no effect, 100 complete control), read-out: Plant response rating, Crabgrass) was 90% and the pest or weed control at 62 g/ha ([5]; post-emergence, Postemergence, scale 0 to 100 (0 no effect, 100 complete control), read-out: Foxtail, Giant plant response rating) was 80%. It also gave a pest or weed control at 250 g/ha ([5]; post-emergence, Postemergence, scale 0 to 100, read-out: Plant response rating, Foxtail, Giant) of 90%, a pest or weed control at 250 g/ha ([5]; pre-emergence, Preemergence, scale 0 to 100 (0 no effect, 100 complete control), read-out: Plant response rating, Foxtail, Giant) of 80% and a pest or weed control at 62 g/ha ([5]; pre-emergence, Preemergence, scale 0 to 100, 0 no effect, 100 complete control, read-out: Plant response rating, Foxtail, Giant) of 10%. For the same molecule, the pest or weed control at 62 g/ha ([6]; post-emergence, Postemergence, scale 0 to 100 (0 no effect, 100 complete control), read-out: Lambsquarters plant response rating) was 100%, the pest or weed control at 250 g/ha ([6]; post-emergence, Postemergence, scale 0 to 100, read-out: Plant response rating, Lambsquarters) was 100% and the pest or weed control at 62 g/ha ([6]; pre-emergence, Preemergence, scale 0 to 100, 0 no effect, 100 complete control, read-out: Plant response rating, Lambsquarters) was 90%. The pest or weed control at 250 g/ha ([6]; pre-emergence, Preemergence, scale 0 to 100 (0 no effect, 100 complete control), read-out: Plant response rating, Lambsquarters) was 100%, the pest or weed control at 62 g/ha ([7]; post-emergence, Postemergence, scale 0 to 100 (0 no effect, 100 complete control), read-out: Morningglory plant response rating) was 90% and the pest or weed control at 250 g/ha ([7]; post-emergence, Postemergence, scale 0 to 100, read-out: Plant response rating, Morningglory) was 100%. For the same molecule, the pest or weed control at 62 g/ha ([7]; pre-emergence, Preemergence, scale 0 to 100, 0 no effect, 100 complete control, read-out: Plant response rating, Morningglory) was 60%, the pest or weed control at 250 g/ha ([7]; pre-emergence, Preemergence, scale 0 to 100 (0 no effect, 100 complete control), read-out: Plant response rating, Morningglory) was 100% and the pest or weed control at 62 g/ha ([8]; post-emergence, Postemergence, scale 0 to 100 (0 no effect, 100 complete control), read-out: Pigweed plant response rating) was 100%. For the same molecule, the pest or weed control at 250 g/ha ([8]; post-emergence, Postemergence, scale 0 to 100, read-out: Plant response rating, Pigweed) was 100%, the pest or weed control at 62 g/ha ([8]; pre-emergence, Preemergence, scale 0 to 100, 0 no effect, 100 complete control, read-out: Plant response rating, Pigweed) was 90% and the pest or weed control at 250 g/ha ([8]; pre-emergence, Preemergence, scale 0 to 100 (0 no effect, 100 complete control), read-out: Plant response rating, Pigweed) was 100%. The pest or weed control at 62 g/ha ([9]; post-emergence, Postemergence, scale 0 to 100 (0 no effect, 100 complete control), read-out: Velvetleaf plant response rating) was 70%, the pest or weed control at 250 g/ha ([9]; post-emergence, Postemergence, scale 0 to 100, read-out: Plant response rating, Velvetleaf) was 100% and the pest or weed control at 62 g/ha ([9]; pre-emergence, Preemergence, scale 0 to 100, 0 no effect, 100 complete control, read-out: Plant response rating, Velvetleaf) was 80%. For the same molecule, the pest or weed control at 250 g/ha ([9]; pre-emergence, Preemergence, scale 0 to 100 (0 no effect, 100 complete control), read-out: Plant response rating, Velvetleaf) was 90%, the plant injury at 62 g/ha ([10]; post-emergence, Postemergence, scale 0 to 100 (0 no effect, 100 complete control), read-out: Wheat plant response rating) was 40% and the plant injury at 250 g/ha ([10]; post-emergence, Postemergence, scale 0 to 100, read-out: Plant response rating, Wheat) was 80%. It also gave a plant injury at 62 g/ha [10, 16] of 50%, a plant injury at 250 g/ha [10, 16] of 70% and a pest or weed control at 62 g/ha ([11]; 62 g ai/ha, scale 0 to 100 (0 no effect, 100 complete control), read-out: Blackgrass plant response rating) of 70%. It also gave a pest or weed control at 250 g/ha ([11]; 250 g ai/ha, scale 0 to 100, read-out: Plant response rating, Blackgrass) of 90%, a pest or weed control at 62 g/ha (wild oat (Avena fatua); 62 g ai/ha, scale 0 to 100 (0 no effect, 100 complete control), read-out: Oat, Wild plant response rating) of 50% and a pest or weed control at 250 g/ha (wild oat (Avena fatua); 250 g ai/ha, scale 0 to 100, read-out: Plant response rating, Oat, Wild) of 80%. For the same molecule, the pest or weed control at 1000 g/ha [12] was 90%, the pest or weed control at 1000 g/ha [13] was 100% and the plant injury at 1000 g/ha (rice (Oryza sativa)) was 80%. For the same molecule, the pest or weed control at 1000 g/ha [14] was 80%.
